Results on one compound are retold here after US9427444B2, “Pharmaceutical and cosmetic compositions for accelerated healing of wounds and other surface damages” (MITOTECH SA, priority 2007, dated 2016).

The subject of assay [1] is human subdermal diploid fibroblasts. Nature of the assay: Differentiation of human subdermal fibroblasts into myofibroblasts (cell square, unstriped muscle actin, vinculin contacts). It is filed as cell-based. The text has this: Myofibroblasts emerge as result of normal fibroblast differentiation and in comparison to them have bigger size, better adherence to the substrate (in vivo to extracellular matrix, in vitro to plastic), different cytoskeleton structure and contractive activity.
Main myofibroblast marker is unstriped muscle actin form, which mediates its contraction activity and almost never can be found in normal fibroblasts.
Better adherence to the substrate is also a characteristic feature of myofibroblasts, it promotes its movement into wound and brace of wound edges. In our experiments we estimated number of tight contacts between cell and substrate, containing special focal adhesion protein vinculin.
It is important to notice that short incubation with SkQ1 for 1-2 hours is enough for induction of this transformation, and further a population of myofibroblasts is supported in a media without SkQ1 for at least 4-6 weeks.

Another assay has as its system fibroblast culture. Nature of the assay: IF staining of cytoskeleton and fibronectin in fibroblast culture treated with SkQ1. Type of assay: cell-based, human. The source says:
It points to contraction activity and cell movement enhancement. […] This was done by IF staining of actin and myosin in fibroblast stress-fibrils, treated with SkQ1 and from control group.
Further on we analyzed a consistence of main extracellular matrix protein fibronectin in fibroblast culture, treated with SkQ1. […] Fibronectinic matrix forms as a result of both cell secretion and reorganization of matrix components present in culture in formation of serum. Fibronectin produced by fibroblasts has certain structural alterity that gives a possibility to construct selective antibodies.

Assay [2] deals with human fibroblast monolayer. Kind of assay: Human fibroblast monolayer damage, model of wound in vitro. Type of assay: cell-based. The source says: Human fibroblast monolayer damage—is a model of wound in vitro, as fibroblasts are basement of connective tissue, which structure falls with any injury or damage. It is known that fibroblasts are one of the first to enter wounded area that considerably determines its healing. Fibroblast monolayer was damaged with sterile scalpel; as a result a 2000 micron wide distant break appeared. Ability of fibroblasts to heal the wound was estimated by length of cell migration zone, appeared during certain time period (1 day) inside the wound. Cell migration zone length depends directly on healing speed of artificially given wound. Results of several different SkQ1 concentrations test are shown on FIG. 4.

Another assay relates to LAR epithelial cell line. Kind of assay: Epithelial layer movement into the wound in vitro. It is filed as cell-based. The procedure: Along with fibroblast movement and contraction, in wound healing a formation plays an important role of new epithelial layers in the wound—so called reepithalialization. Study on this process in vitro was carried out using LAR epithelial cell line. […] Ability of cell to form tight “islands” and single epithelial layer also weren't disturbed. Studies on expression of intracellular contact protein E-cadherin specific for epithelium confirmed epithelial structure stability in presence of SkQ1. […] This effect was studied in vitro using the same mode that was used in fibroblast studies. […] Unlike fibroblasts, epithelial cells moved into the wound in a single layer with all characteristic morphology and intracellular contacts.

For the compound `CC1=C(C)C(=O)C(CCCCCCCCCC[P+](c2ccccc2)(c2ccccc2)c2ccccc2)=CC1=O.[Br-]` [SkQ1], in assay [1], the “incubation time enough for induction of transformation into myofibroblasts” value lay in the range of 1 to 2 h. Further, in assay [1] (SkQ1 20 nM, whole population), the “average square value increase” value was “increases more then two-three fold”. For the same compound, the “number of vinculin-containing contacts per cell” value in assay [1] (SkQ1 treated versus control cells, FIG. 3) was “increase of number of contacts per cell”. In addition, in assay [1] (SkQ1 treatment, FIG. 2), the “average square of significant group of cells over control value (cell size distribution)” value is given as 5-6 fold. Moreover, the “unstriped muscle actin form (IF staining) in giant cells versus normal fibroblasts” value in assay [1] (after SkQ1 treatment) is reported as “heavy increase”. Also, in assay [1] (after short incubation with SkQ1), the “time myofibroblast population is supported in media without SkQ1” value is reported as 4-6 weeks. In the assay on fibroblast culture (IF staining of actin and myosin), the “cell skeleton reorganization, stress-fibrils” value is “active cell skeleton reorganization with stress-fibril enhancement”. Besides, in the assay on fibroblast culture (monolayer areas and cell migration zone), the “fibronectin level (IF staining)” value was “significant increase”. In addition, the “intracellular expression of fibronectin” value in the assay with fibroblast culture (selective antibodies to fibroblast fibronectin) is recorded as “raises”. The “length of cell migration zone inside the wound” value in assay [2] (1 day, 2000 micron wide break, FIG. 4) is on record as “short period incubation with SkQ1 caused effect, which continued for a long time even without SkQ1”. For the same compound, the “number of cell rows entered to the wound” value in assay [2] (24 hours, FIG. 5) is reported as “Injury healing acceleration”. In addition, in the assay with LAR epithelial cell line, the “actinic stress-fibrils in the cells” value is listed as “significantly raised”, the “cell movement into the wound” value is recorded as “significantly accelerates cell movement into the wound”, the “morphological changes of epithelial cells” value is recorded as “didn't cause significant morphological changes” and the “persistence of effect on epithelial cells after drug withdrawal” value is given as “continued long after drug withdrawal”.
